Measured values as given in US8278072B1, “Method for synthesis of sialylated products using reversible sialylation” (Health Research, Inc., priority 2007, dated 2012).

Legend:
Format in all cases: biochemical
[1] = molecular target: T1, ST3Gal II (Cloned rat liver) (Rattus norvegicus, UniProt Q11205); experiment: Forward (direct) sialyltransferase activity, ST3Gal-II; conditions: donor CMP-[9-3H]NeuAc, acceptor [5], varying nucleotide concentrations
T1 construct: purchased Calbiochem
T1 sequence (Q11205 1-350): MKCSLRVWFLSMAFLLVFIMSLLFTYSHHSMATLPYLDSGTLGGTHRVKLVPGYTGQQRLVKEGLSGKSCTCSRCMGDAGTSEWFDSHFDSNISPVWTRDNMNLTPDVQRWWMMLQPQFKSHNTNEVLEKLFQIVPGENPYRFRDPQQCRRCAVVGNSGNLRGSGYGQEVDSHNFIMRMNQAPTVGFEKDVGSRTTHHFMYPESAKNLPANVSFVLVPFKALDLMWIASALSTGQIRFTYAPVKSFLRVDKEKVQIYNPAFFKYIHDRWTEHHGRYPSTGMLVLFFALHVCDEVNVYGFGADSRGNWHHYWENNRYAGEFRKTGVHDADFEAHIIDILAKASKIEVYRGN
Method: (§1) FIG. 5. Effect of 5′-nucleotides on direct sialyltransferase activity (panel a) and reverse sialylation (panel b). a. Varying concentrations of 5′-CDP or 5′-CMP were added to 100 mM acceptor (specified below), 0.15 mM CMP-[9-^3H]NeuAc and either ST3Gal-II (0.2 mU), ST3Gal-III (0.5 mU) or ST6Gal-I (0.2 mU) for 4 h at 37° C. Products were separated using Sep-Pak C18 method. ST3Gal-III activity was measured using acceptor 4-O-MeGalβ1,4GlcNAcβ-O-Bn in the presence of 5′-CDP (●) and 5′-CMP (◯). ST6Gal-I activity was measured using Gal β1,4GlcNAcβ-O-Bn in the presence of 5′-CDP (▴) and 5′-CMP (Δ). ST3Gal-II using D-Fucβ1,3GalNAcα-O-Bn in the presence of 5′-CDP (▪) and 5′-CMP (□). b) Reverse sialylation by ST3Gal-II was measured in reaction mixtures containing 0.2 mM [9-^3H] [3], 7 mM 5′-CMP, ST3Gal-II (2 mU), D-Fucβ1,3GalNAcα-OBn (3.0 mM) and varying doses of either 5′-CDP (▴), 5′-UMP (◯) or 2-deoxy 5′-CMP (●) for 4 hours at 37° C. Reaction product ([9-^3H]NeuAcα2,3DFucβ1,3 GalNAcα-O-Bn) was isolated using Sep-Pak C18 method. In some runs, where was absent, the amount of CMP-NeuAc produced was quantified using the Dowex-1 Formate method in the presence of varying doses of 5′-CDP (▪).
(§2) Besides pH other distinctions were also observed between forward and reverse sialylation. In this regard, citrate ions tended to inhibit forward sialylation but not reverse sialylation activity (Table V). For these studies, the effect of citrate on the forward sialylation activity of ST3Gal-I, ST3Gal-II, ST3Gal-III and ST6Gal-I was examined. Reverse sialylation activity of ST3Gal-II was also measured in terms of: i) the formation of CMP-NeuAc from 5′-CMP; and ii) the transfer of NeuAc from this newly synthesized CMP-NeuAc to another O-glycan. From the data (Table V), it is evident that citrate inhibits the direct sialylation activity of all the enzymes mentioned above. However, both the synthesis of CMP-[9-^3H]NeuAc from 5′-CMP as well as the synthesis of [9-^3H]NeuAcα2,3D-Fucβ1,3 GalNAcα-O-Bn using the newly formed CMP-[9-^3H]NeuAc through reverse sialylation of ST3Gal-II was not inhibited by citrate.
(§3) The effect of 5′-nucleotides on forward sialylation (FIG. 5a) and reverse sialylation (FIG. 5b) were examined. […] The overall formation of [9-^3H]NeuAcα2,3D-Fucβ1,3 GalNAcα-O-Bn by the two-step reverse sialylation process, however, was inhibited by 5′-CDP and this is consistent with the finding that 5′-CDP inhibits forward sialylation in the second step.

[2] = molecular target: T2, ST3Gal III (Cloned rat liver) (Rattus norvegicus, UniProt Q02734); experiment: Forward (direct) sialyltransferase activity, ST3Gal-III; conditions: donor CMP-[9-3H]NeuAc, acceptor 4-O-MeGalβ1,4GlcNAcβ-O-Bn
T2 construct: purchased Calbiochem
T2 sequence (Q02734 1-374): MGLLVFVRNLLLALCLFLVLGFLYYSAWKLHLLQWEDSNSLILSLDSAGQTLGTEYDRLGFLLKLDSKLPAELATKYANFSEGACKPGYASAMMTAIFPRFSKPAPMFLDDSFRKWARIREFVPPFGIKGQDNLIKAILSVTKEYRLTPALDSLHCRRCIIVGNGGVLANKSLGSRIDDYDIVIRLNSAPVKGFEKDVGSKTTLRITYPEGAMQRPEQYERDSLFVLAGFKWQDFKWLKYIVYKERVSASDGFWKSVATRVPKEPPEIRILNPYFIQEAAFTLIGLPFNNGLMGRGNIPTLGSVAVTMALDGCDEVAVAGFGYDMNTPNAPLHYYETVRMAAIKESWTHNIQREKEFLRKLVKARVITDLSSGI
Method: as §1, §2, §3

[3] = molecular target: T3, ST6Gal I (Cloned rat liver) (Rattus norvegicus, UniProt P13721); experiment: Forward (direct) sialyltransferase activity, ST6Gal-I; conditions: donor CMP-[9-3H]NeuAc, acceptor Galβ1,4GlcNAcβ-O-Bn
T3 construct: purchased Calbiochem
T3 sequence (P13721 1-403): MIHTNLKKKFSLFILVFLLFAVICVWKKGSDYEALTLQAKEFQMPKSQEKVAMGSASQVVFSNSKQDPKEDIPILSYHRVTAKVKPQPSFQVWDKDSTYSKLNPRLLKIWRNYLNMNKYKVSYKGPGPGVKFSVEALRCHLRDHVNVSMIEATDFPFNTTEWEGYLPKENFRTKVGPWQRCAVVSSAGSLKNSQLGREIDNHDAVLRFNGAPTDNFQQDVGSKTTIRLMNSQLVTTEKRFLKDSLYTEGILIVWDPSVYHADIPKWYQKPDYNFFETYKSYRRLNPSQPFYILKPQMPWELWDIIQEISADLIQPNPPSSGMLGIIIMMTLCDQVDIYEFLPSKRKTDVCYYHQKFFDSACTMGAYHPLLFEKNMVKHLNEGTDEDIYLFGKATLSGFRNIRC
Method: as §1, §2, §3

ST3Gal-II = molecular target: T4, ST3Gal-II (Rattus norvegicus, UniProt Q11205); experiment: Reverse sialylation by ST3Gal-II in presence of citrate or 5′-nucleotides; conditions: 0.2 mM [3], 7 mM 5′-CMP, no [5], Dowex-1 Formate
T4 construct: purchased Calbiochem
T4 sequence (Q11205 1-350): T1 sequence (Q11205 1-350)
Method: as §1, §2, §3

| SMILES | Effect on forward sialylation activity of ST3Gal-II [1] | Effect on forward sialylation activity of ST3Gal-III [2] | Effect on forward sialylation activity of ST6Gal-I [3] | Effect on first step of reverse sialylation (formation of CMP-[9-3H]NeuAc from 5′-CMP) (ST3Gal-II) |
| --- | --- | --- | --- | --- |
| Nc1ccn([C@@H]2O[C@H](COP(=O)(O)OP(=O)(O)O)[C@@H](O)[C@H]2O)c(=O)n1 [5′-CDP] | inhibited | inhibited | inhibited | did not inhibit |
| Nc1ccn([C@@H]2O[C@H](COP(=O)(O)O)[C@@H](O)[C@H]2O)c(=O)n1 [5′-CMP, Cytidine 5′-monophosphate] | inhibited | inhibited | inhibited | – |
